Test results as given in PubChem BioAssay AID328 (DTP/NCI, 2004).
Several values for one entry are separate records, joined by “and”; a condition that tells them apart may be missing. Equal entries are not always repeated. Inconclusive results and toxic doses are left out. How the source made its calls: active means survival T/C of 150% or more; inactive means T/C below 125% in these data.

Tested on: BDF1 mice, P388 leukemia ip, median survival T/C
Assay: NCI In Vivo Anticancer Drug Screen. Data for tumor model P388 Leukemia (intraperitoneal) in B6D2F1 (BDF1) mice
Conditions: endpoint: median survival time, higher = longer survival
In short: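 Vehicle-dosed animals serve as the reference; survival of compound-dosed, tumour-implanted mice is divided by it.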

[1] = dose: 100.0 mg/kg/injection, schedule: Q04DX003 (ip), vehicle: saline with Tween-80
[2] = dose: 200.0 mg/kg/injection, schedule: Q04DX003 (ip), vehicle: saline with Tween-80
[3] = dose: 400.0 mg/kg/injection, schedule: Q04DX003 (ip), vehicle: saline with Tween-80
[4] = dose: 100.0 mg/kg/injection, schedule: Q01DX009 (ip), vehicle: saline with Tween-80
[5] = dose: 200.0 mg/kg/injection, schedule: Q01DX009 (ip), vehicle: saline with Tween-80
[6] = dose: 50.0 mg/kg/injection, schedule: Q01DX009 (ip), vehicle: saline with Tween-80
[7] = dose: 25.0 mg/kg/injection, schedule: Q01DX009 (ip), vehicle: Klucel (hydroxypropylcellulose) (HPC)
[8] = dose: 50.0 mg/kg/injection, schedule: Q01DX009 (ip), vehicle: Klucel (hydroxypropylcellulose) (HPC)
[9] = dose: 100.0 mg/kg/injection, schedule: Q01DX009 (ip), vehicle: Klucel (hydroxypropylcellulose) (HPC)
[10] = dose: 100.0 mg/kg/injection, schedule: Q04DX002 (ip), vehicle: saline with Tween-80
[11] = dose: 200.0 mg/kg/injection, schedule: Q04DX002 (ip), vehicle: saline with Tween-80
[12] = dose: 400.0 mg/kg/injection, schedule: Q04DX002 (ip), vehicle: saline with Tween-80
[13] = dose: 100.0 mg/kg/injection, schedule: Q01DX009 (ip), vehicle: saline
[14] = dose: 100.0 mg/kg/injection, schedule: Q04DX003 (ip), vehicle: Klucel (hydroxypropylcellulose) (HPC)
[15] = dose: 200.0 mg/kg/injection, schedule: Q01DX009 (ip), vehicle: saline
[16] = dose: 200.0 mg/kg/injection, schedule: Q04DX003 (ip), vehicle: Klucel (hydroxypropylcellulose) (HPC)
[17] = dose: 400.0 mg/kg/injection, schedule: Q01DX009 (ip), vehicle: saline
[18] = dose: 400.0 mg/kg/injection, schedule: Q04DX003 (ip), vehicle: Klucel (hydroxypropylcellulose) (HPC)
[19] = dose: 50.0 mg/kg/injection, schedule: Q01DX009 (ip), vehicle: saline

Measured: T/C

O=Cc1[nH]c(=S)[nH]c(=O)c1Cc1ccc([N+](=O)[O-])cc1
inactive: [1] 100 % of control | [2] 95 % of control | [3] 112 % of control

NC(C(=O)O)C(=O)c1ccccc1 (stereo not given)
inactive: dose: 100.0 mg/kg/injection, schedule: Q04DX003 (ip), vehicle: saline sonified 100 % of control | dose: 200.0 mg/kg/injection, schedule: Q04DX003 (ip), vehicle: saline sonified 100 % of control | dose: 400.0 mg/kg/injection, schedule: Q04DX003 (ip), vehicle: saline sonified 100 % of control

CC(=O)O[C@H]1CC[C@H]2[C@@H]3[C@H](C)CC4=CC(=O)CCC4[C@H]3CC[C@]12C (stereo not given in full)
inactive: [4] 95 % of control | [1] 100 % of control | [5] 90 % of control | [2] 95 % of control | dose: 400.0 mg/kg/injection, schedule: Q01DX009 (ip), vehicle: saline with Tween-80 100 % of control | [3] 100 % of control

NN(C(=O)c1ccccc1)C1CCCCC1
inactive: dose: 25.0 mg/kg/injection, schedule: Q01DX009 (ip), vehicle: alcohol 91 % of control | dose: 50.0 mg/kg/injection, schedule: Q01DX009 (ip), vehicle: alcohol 100 % of control | dose: 75.0 mg/kg/injection, schedule: Q04DX003 (ip), vehicle: Klucel (hydroxypropylcellulose) (HPC) 110 % of control | dose: 115.0 mg/kg/injection, schedule: Q04DX003 (ip), vehicle: Klucel (hydroxypropylcellulose) (HPC) 120 % of control | dose: 170.0 mg/kg/injection, schedule: Q04DX003 (ip), vehicle: Klucel (hydroxypropylcellulose) (HPC) 100 % of control | dose: 255.0 mg/kg/injection, schedule: Q04DX003 (ip), vehicle: Klucel (hydroxypropylcellulose) (HPC) 110 % of control | dose: 385.0 mg/kg/injection, schedule: Q04DX003 (ip), vehicle: Klucel (hydroxypropylcellulose) (HPC) 100 % of control

CC1=NN(CCO)C(=O)C1
inactive: [6] 95 % of control | [4] 92 % of control | [5] 93 % of control

CCNc1nc(Cl)nc(-c2cn(-c3ccccc3)c3ccccc23)n1
inactive: dose: 12.5 mg/kg/injection, schedule: Q01DX009 (ip), vehicle: Klucel (hydroxypropylcellulose) (HPC) 100 % of control | [7] 91 % of control | [8] 86 % of control | [9] 91 % of control

C[N+]1(C)N=C([O-])N(c2ccccc2Cl)C1=O
inactive: [1] 100 % of control | [2] 108 % of control | [3] 99 % of control

O=c1c2ccccc2[nH]c2c([N+](=O)[O-])ccc(Oc3cccc(C(F)(F)F)c3)c12
inactive: [10] 90 % of control | [11] 102 % of control | [12] 92 % of control

COc1ccc2[nH]c3c(c2c1)CCNC3CC(C)CCC=C(C)C (stereo not given)
inactive: [6] 93 % of control | [4] 113 % of control

COc1ccc(C(=O)c2cc(OC)c(OC)c(OC)c2)cc1OC
inactive: [9] 92 % of control | [13] 109 % of control | [14] 95 % of control | dose: 200.0 mg/kg/injection, schedule: Q01DX009 (ip), vehicle: Klucel (hydroxypropylcellulose) (HPC) 107 % of control | [15] 113 % of control | [16] 104 % of control | dose: 400.0 mg/kg/injection, schedule: Q01DX009 (ip), vehicle: Klucel (hydroxypropylcellulose) (HPC) 107 % of control | [17] 122 % of control | [18] 95 % of control

Cc1cc(C)c(N)c(Br)c1
inactive: dose: 12.5 mg/kg/injection, schedule: Q01DX009 (ip), vehicle: other 90 % of control | dose: 25.0 mg/kg/injection, schedule: Q01DX009 (ip), vehicle: other 90 % of control | dose: 50.0 mg/kg/injection, schedule: Q01DX009 (ip), vehicle: other 114 % of control | dose: 100.0 mg/kg/injection, schedule: Q04DX003 (ip), vehicle: other 100 % of control

C=C(C)C12OC3(c4ccccc4)OC1C1C4OC4(CO)C(O)C4(O)C(=O)C(C)=CC4C1(O3)C(C)C2OC(=O)/C=C/C=C/CCCCC (stereo not given)
inactive: dose: 6.3 micrograms/kg/injection, schedule: Q## X009 (ip), vehicle: saline + alcohol 107 % of control | dose: 12.5 micrograms/kg/injection, schedule: Q## X009 (ip), vehicle: saline + alcohol 103 % of control | dose: 25.0 micrograms/kg/injection, schedule: Q## X009 (ip), vehicle: saline + alcohol 103 % of control | dose: 200.0 micrograms/kg/injection, schedule: Q## X009 (ip), vehicle: saline + alcohol 106 % of control

NC(Cn1ccc(=O)c(O)c1)C(=O)O (stereo not given)
inactive: [19] 95 % of control | [13] 100 % of control | [15] 108 % of control | [17] 122 % of control

O=C1CCCC1C(=O)Nc1cccc2cccnc12 (stereo not given)
inactive: [1] 117 % of control | [2] 95 % of control | [3] 100 % of control

O=C(c1ccccc1)c1ccccc1C(=O)c1ccccc1
inactive: [7] 95 % of control | [8] 100 % of control | [9] 89 % of control and 91 % of control | [14] 109 % of control | [16] 104 % of control | [18] 118 % of control

CN=c1ccc2nc3ccc(N)cc3sc-2c1
inactive: dose: 50.0 mg/kg/injection, schedule: Q01DX005 (ip), vehicle: saline with Tween-80 103 % of control

Cc1noc(N)c1[N+](=O)[O-]
inactive: dose: 25.0 mg/kg/injection, schedule: Q01DX009 (ip), vehicle: saline 95 % of control | [19] 109 % of control | [13] 109 % of control

C=CC(=O)NCCCC(=O)O
inactive: [19] 94 % of control | [13] 91 % of control | [15] 100 % of control

Cc1ccc2c(c1O)NC(=O)C1CCCN1C2=O (stereo not given)
inactive: [10] 99 % of control | [11] 102 % of control | [12] 101 % of control

C=CCN1C(=O)CNC1=O
inactive: [19] 93 % of control | [13] 100 % of control | [15] 101 % of control

CSc1ccccc1C(=O)NNS(=O)(=O)c1ccc(C)cc1
inactive: [14] 91 % of control | [16] 104 % of control | [18] 100 % of control

COC1CCC(OC2C(C)C(O)(C(C)C(=O)O)OC(CC3CC(OC)C(C)C4(O3)OC(C)(C3CCC(C5CCC(C6OC(C)(O)C(C)C(OC)C6C)O5)O3)C(OC)C4C)C2(C)OC)OC1C (stereo not given)
inactive: dose: 0.62 mg/kg/injection, schedule: Q01DX009 (ip), vehicle: saline 94 % of control | dose: 1.25 mg/kg/injection, schedule: Q01DX009 (ip), vehicle: saline 96 % of control

COC(=O)C(CCC(=O)O)NC(=O)OCc1ccccc1 (stereo not given)
inactive: dose: 25.0 mg/kg/injection, schedule: Q04DX003 (ip), vehicle: Klucel (hydroxypropylcellulose) (HPC) 104 % of control | dose: 50.0 mg/kg/injection, schedule: Q04DX003 (ip), vehicle: Klucel (hydroxypropylcellulose) (HPC) 113 % of control | [14] 95 % of control and 109 % of control

CC/C(C)=N\NC(=S)SC
inactive: dose: 3.13 mg/kg/injection, schedule: Q01DX009 (ip), vehicle: saline with Tween-80 98 % of control | dose: 6.25 mg/kg/injection, schedule: Q01DX009 (ip), vehicle: saline with Tween-80 102 % of control | dose: 12.5 mg/kg/injection, schedule: Q01DX009 (ip), vehicle: saline with Tween-80 102 % of control

CCOC(=O)CC(C)C(Br)(C(=O)OCC)C(=O)OCC (stereo not given)
inactive: dose: 25.0 mg/kg/injection, schedule: Q01DX009 (ip), vehicle: water 110 % of control | dose: 25.0 mg/kg/injection, schedule: Q04DX003 (ip), vehicle: water 108 % of control | dose: 50.0 mg/kg/injection, schedule: Q01DX009 (ip), vehicle: water 121 % of control | dose: 50.0 mg/kg/injection, schedule: Q04DX003 (ip), vehicle: water 110 % of control | dose: 100.0 mg/kg/injection, schedule: Q01DX009 (ip), vehicle: water 114 % of control | dose: 100.0 mg/kg/injection, schedule: Q04DX003 (ip), vehicle: water 117 % of control | dose: 200.0 mg/kg/injection, schedule: Q04DX003 (ip), vehicle: water 106 % of control

O=C1C(=O)c2ccccc2C([O-])=C1[n+]1ccccc1
inactive: dose: 50.0 mg/kg/injection, schedule: Q04DX003 (ip), vehicle: saline with Tween-80 109 % of control | [1] 95 % of control | [2] 90 % of control

COc1ccc(NC(=O)Oc2ccccc2Cc2ccccc2)cc1
inactive: [14] 100 % of control | [16] 95 % of control
